Data as given in the NIST ThermoML archive (doi:10.1016/j.jct.2005.09.003).

Assay: xn = mol fraction of the nth substance listed
Conditions: Liquid

CCCCCCCl [1-chlorohexane] + CCCCCCCC
mass density [kg/m3]
Conditions | x2 = 0 | x2 = 0.1016 | x2 = 0.1996 | x2 = 0.3153 | x2 = 0.3948 | x2 = 0.4862 | x2 = 0.5938 | x2 = 0.6966 | x2 = 0.794 | x2 = 0.9001
308.15 K, 39620 kPa | – | – | – | – | – | – | – | – | – | 735.19
318.15 K, 100 kPa | 854.58 | 834.04 | 814.96 | 793.28 | 778.92 | 762.93 | 744.78 | 728.11 | 712.89 | 696.93
318.15 K, 2130 kPa | 856.27 | 835.95 | 816.81 | 795.21 | 780.76 | 764.83 | 746.83 | 730.05 | 714.94 | 698.9
318.15 K, 4150 kPa | 858.19 | 837.89 | 818.74 | 797.18 | 782.71 | 766.77 | 748.78 | 732.01 | 716.9 | 700.85
318.15 K, 6180 kPa | 860.06 | 839.78 | 820.64 | 799.07 | 784.6 | 768.67 | 750.71 | 733.92 | 718.79 | 702.75
318.15 K, 8210 kPa | 861.91 | 841.62 | 822.49 | 800.94 | 786.48 | 770.55 | 752.56 | 735.77 | 720.67 | 704.6
318.15 K, 10230 kPa | 863.73 | 843.46 | 824.34 | 802.79 | 788.32 | 772.38 | 754.41 | 737.61 | 722.49 | 706.41
318.15 K, 11250 kPa | 864.62 | 844.35 | 825.23 | 803.67 | 789.21 | 773.28 | 755.31 | 738.5 | 723.39 | 707.3
318.15 K, 12260 kPa | 865.5 | 845.27 | 826.11 | 804.57 | 790.11 | 774.2 | 756.2 | 739.4 | 724.3 | 708.21
318.15 K, 14290 kPa | 867.28 | 847.01 | 827.89 | 806.35 | 791.88 | 775.94 | 757.98 | 741.15 | 726.04 | 709.95
318.15 K, 16310 kPa | 869 | 848.75 | 829.61 | 808.09 | 793.61 | 777.66 | 759.69 | 742.89 | 727.75 | 711.66
318.15 K, 18340 kPa | 870.66 | 850.43 | 831.3 | 809.76 | 795.29 | 779.35 | 761.37 | 744.57 | 729.42 | 713.3
318.15 K, 20370 kPa | 872.33 | 852.13 | 832.97 | 811.43 | 796.96 | 781.01 | 763.03 | 746.2 | 731.08 | 714.96
318.15 K, 22390 kPa | 873.95 | 853.71 | 834.6 | 813.06 | 798.59 | 782.65 | 764.67 | 747.82 | 732.69 | 716.55
318.15 K, 24420 kPa | 875.54 | 855.32 | 836.2 | 814.65 | 800.17 | 784.23 | 766.24 | 749.39 | 734.25 | 718.09
318.15 K, 26450 kPa | 877.12 | 856.9 | 837.77 | 816.23 | 801.75 | 785.8 | 767.8 | 750.95 | 735.8 | 719.69
318.15 K, 28470 kPa | 878.67 | 858.45 | 839.34 | 817.78 | 803.29 | 787.34 | 769.34 | 752.48 | 737.32 | 721.17
318.15 K, 29490 kPa | 879.43 | 859.22 | 840.08 | 818.54 | 804.05 | 788.09 | 770.08 | 753.23 | 738.07 | 721.87
318.15 K, 30500 kPa | 880.19 | 859.99 | 840.84 | 819.31 | 804.81 | 788.85 | 770.85 | 753.99 | 738.83 | 722.64
318.15 K, 32530 kPa | 881.7 | 861.5 | 842.34 | 820.8 | 806.31 | 790.33 | 772.31 | 755.45 | 740.27 | 724.08
318.15 K, 34550 kPa | 883.17 | 862.97 | 843.8 | 822.26 | 807.75 | 791.8 | 773.76 | 756.87 | 741.69 | 725.5
318.15 K, 36580 kPa | 884.63 | 864.41 | 845.26 | 823.71 | 809.2 | 793.22 | 775.19 | 758.28 | 743.11 | 726.91
318.15 K, 38600 kPa | 886.04 | 865.86 | 846.68 | 825.13 | 810.6 | 794.61 | 776.59 | 759.68 | 744.49 | 728.26
318.15 K, 39620 kPa | 886.76 | 866.55 | 847.39 | 825.83 | 811.31 | 795.32 | 777.27 | 760.4 | 745.19 | –
